{"source": "patent US20230174526A1", "about": "“BENZOTHIAZOLYL BIARYL COMPOUND, AND PREPARATION METHOD AND USE” (SHANGHAI RINGENE BIOPHARMA CO., LTD., priority 2020, published 2023)", "test_system": "MiaPaca-2 cells (pancreatic cancer)", "test": "Proliferation test method 1 (2D, MTT), MiaPaca-2", "type": "cell-based", "details": "Homo sapiens, MIA PaCa-2, 2D, 5-7 days, read-out: IC50/nM proliferation inhibitory activity on MiaPaca-2 cells", "description": "Test method 1 (2D):NCI-H358 (lung cancer) and MiaPaca-2 cells (pancreatic cancer) cells (100 µL/well, 20,000 cells/mL) were inoculated in 96-well culture plates supplemented with 10% fetal bovine serum and 1% penicillin/streptomycin sulfate, respectively.Using 0.5% dimethyl sulfoxide as a blank control, cells were treated with a solution of the compound to be tested at a starting concentration of 10 µM, tripled diluted testing solution of the compound in eight gradients were used to treat cells, and then incubated in a 5% CO2 incubator for a certain period of time (5-7 days).At the end of incubation, 10 µL of MTT stock solution (5 mg/mL) was added to each well.The culture plates were incubated at 37° C. for 4 h and then the medium was removed.Dimethyl sulfoxide (100 µL) was added to each well and then shaken sufficiently. The absorbance of the product formazanwas measured at 570 nm on the Thermo Scientific Varioskan Flash multimode reader.IC50 values were obtained by fitting dose-response data into a three-parameter nonlinear regression model using GraphPad Prism 6.0 software."}
{"smiles": "C=CC(=O)N1C[C@@H]2C(=O)N(C)c3cnc4c(F)c(-c5ccc(F)c6sc(N)nc56)c(Cl)cc4c3N2C[C@H]1C", "note": "(single isomer, unassigned) [Example 17-1]", "values": [{"measurement": "IC50", "value": 24.8, "unit": "nM"}]}
